How the values were obtained:
[1] = tested on: RKO (RKOp27) human colon adenocarcinoma cells; assay: Alamar Blue cell viability assay, anti-proliferative/cytotoxic activity on proliferating RKO subclones; format: cell-based; conditions: RKOp27, 72 h, RKO p27 uninduced (proliferating) cells, value = class bound given in Table A, read-out: −logIC50 RKO p27 uninduced (proliferating) (converted)
Procedure, shortened: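 Alamar Blue fluorescence (ex 544, em 590 nm) after 72 h compound exposure at 37 °C, 5% CO2, normalised to untreated controls set at 100%. Cells were seeded at 5000 per well and dosed 24 h later with serial semi-logarithmic dilutions in 10% FCS DMEM, four replicates each. −log IC50 [mol/l] was derived from concentration-effect curves.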

[2] = tested on: subclones of RKO colon adenocarcinoma cells (RKOp27 or RKOp21) arrested by Ponasterone A; assay: Alamar Blue cell viability assay, cell cycle specific mode of action: cells arrested by ectopic p27Kip1 induced by Ponasterone A versus proliferating cells; format: cell-based; conditions: Homo sapiens, RKO p27 induced (arrested) cells, 10 μM Ponasterone A, 72 hours, value = class bound given in Table A, read-out: −logIC50 RKO p27 induced (arrested) (converted)
Procedure, shortened: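 Viability of proliferating versus Ponasterone A (10 μM)-arrested RKOp27/RKOp21 cells after 72 h compound exposure at 37° C, in quadruplicate. Read-out is Alamar Blue fluorescence (544/590 nm) normalised to untreated cells = 100%; values as −log IC50.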

Structure (SMILES)	IC50 [1] [µM]	IC50 [2] [µM]
COc1cccc(C(C)CC(=O)Nc2sc3c(c2C#N)CCC(COC(=O)NCc2csc(C)n2)C3)c1 (stereo not shown) [Example 363, (2-Methyl-thiazol-4-ylmethyl)-carbamic acid 3-cyano-2-[3-(3-methoxy-phenyl)-butanoyl-amino]-4,5,6,7-tetrahydro-benzo[b]thiophen-6-ylmethyl ester]	0.501 to 2	≥ 100
COCCNC(=O)OC1CCc2c(sc(NC(=O)/C=C/c3cccnc3)c2C#N)C1 (stereo not shown) [Example 18, (2-Methoxy-ethyl)-carbamic acid 3-cyano-2-((E)-3-pyridin-3-yl-allanoylamino)-4,5,6,7-tetrahydro-benzo[b]thiophen-6-yl ester]	0.501 to 2	≥ 100
Cc1oncc1CNC(=O)OC1CCc2c(sc(NC(=O)/C=C/c3cccnc3)c2C#N)C1 (stereo not shown) [Example 58, (5-Methyl-isoxazol-4-ylmethyl)-carbamic acid 3-cyano-2-((E)-3-pyridin-3-yl-allanoylamino)-4,5,6,7-tetrahydro-benzo[b]thiophen-6-yl ester]	0.501 to 2	≥ 100
CCNC(=O)OCC1CCc2c(sc(NC(=O)CCc3cccnc3)c2C#N)C1 (stereo not shown) [Example 156, Ethyl-carbamic acid 3-cyano-2-(3-pyridin-3-yl-propanoylamino)-4,5,6,7-tetrahydro-benzo[b]thiophen-6-ylmethyl ester]	0.501 to 2	≥ 100
Cc1cc(CNC(=O)OC2CCc3c(sc(NC(=O)CC(C)c4ccccc4)c3C#N)C2)n(C)n1 (stereo not shown) [Example 302, (2,5-Dimethyl-2H-pyrazol-3-ylmethyl)-carbamic acid 3-cyano-2-(3-phenyl-butanoylamino)-4,5,6,7-tetrahydro-benzo[b]thiophen-6-yl ester]	≤ 0.501	≥ 50.1
Cc1cc(CNC(=O)OC2CCc3c(sc(NC(=O)/C=C/c4cccnc4)c3C#N)C2)on1 (stereo not shown) [Example 94, (3-Methyl-isoxazol-5-ylmethyl)-carbamic acid 3-cyano-2-((E)-3-pyridin-3-yl-allanoylamino)-4,5,6,7-tetrahydro-benzo[b]thiophen-6-yl ester]	≤ 0.501	≥ 100
Cn1cncc1CNC(=O)OC1CCc2c(sc(NC(=O)/C=C/c3cccnc3)c2C#N)C1 (stereo not shown) [Example 38, (3-Methyl-3H-imidazol-4-ylmethyl)-carbamic acid 3-cyano-2-((E)-3-pyridin-3-yl-allanoylamino)-4,5,6,7-tetrahydro-benzo[b]thiophen-6-yl ester]	0.501 to 2	≥ 100
COc1cccc(CCC(=O)Nc2sc3c(c2C#N)CCC(OC(=O)NCc2ccno2)C3)c1 (stereo not shown) [Example 229, Isoxazol-5-ylmethyl-carbamic acid 3-cyano-2-[3-(3-methoxy-phenyl)-propanoylamino]-4,5,6,7-tetrahydro-benzo[b]thiophen-6-yl ester]	0.501 to 2	≥ 100
CCOc1ccccc1CCC(=O)Nc1sc2c(c1C#N)CCC(OC(=O)NCc1cc(C)on1)C2 (stereo not shown) [Example 172, (5-Methyl-isoxazol-3-ylmethyl)-carbamic acid 3-cyano-2-[3-(2-ethoxy-phenyl)-propanoylamino]-4,5,6,7-tetrahydro-benzo[b]thiophen-6-yl ester]	≤ 0.501	≥ 100
Cn1cc(CNC(=O)OCC2CCc3c(sc(NC(=O)/C=C/c4cccnc4)c3C#N)C2)cn1 (stereo not shown) [Example 50, (1-Methyl-1H-pyrazol-4-ylmethyl)-carbamic acid 3-cyano-2-((E)-3-pyridin-3-yl-allanoylamino)-4,5,6,7-tetrahydro-benzo[b]thiophen-6-ylmethyl ester]	≤ 0.501	≥ 100
CCNC(=O)OCC1CCc2c(sc(NC(=O)CC(C)c3cccnc3)c2C#N)C1 (stereo not shown) [Example 278, Ethyl-carbamic acid 3-cyano-2-(3-pyridin-3-yl-butanoylamino)-4,5,6,7-tetrahydro-benzo[b] thiophen-6-ylmethyl ester]	0.501 to 2	≥ 100
N#Cc1c(NC(=O)/C=C/c2cccnc2)sc2c1CC[C@@H](COC(=O)N1CCC[C@H](O)C1)C2 [Example 87d, (S)-3-Hydroxy-piperidine-1-carboxylic acid (R)-3-cyano-2-((E)-3-pyridin-3-yl-allanoylamino)-4,5,6,7-tetrahydro-benzo[b]thiophen-6-ylmethyl ester]	≤ 0.501	≥ 100
Cn1cnc(CNC(=O)OC2CCc3c(sc(NC(=O)/C=C/c4cccnc4)c3C#N)C2)c1 (stereo not shown) [Example 53, (1-Methyl-1H-imidazol-4-ylmethyl)-carbamic acid 3-cyano-2-((E)-3-pyridin-3-yl-allanoylamino)-4,5,6,7-tetrahydro-benzo[b]thiophen-6-yl ester]	0.501 to 2	≥ 100
CCNC(=O)OC[C@H]1CCc2c(sc(NC(=O)CCc3cccnc3)c2C#N)C1 [Example 156a, (S)-Ethyl-carbamic acid 3-cyano-2-(3-pyridin-3-yl-propanoylamino)-4,5,6,7-tetrahydro-benzo[b]thiophen-6-ylmethyl ester]	0.501 to 2	≥ 100
Cc1nocc1CNC(=O)OCC1CCc2c(sc(NC(=O)CC(C)c3ccccc3)c2C#N)C1 (stereo not shown) [Example 352, (3-Methyl-isoxazol-4-ylmethyl)-carbamic acid 3-cyano-2-(3-phenyl-butanoylamino)-4,5,6,7-tetrahydro-benzo[b]thiophen-6-ylmethyl ester]	≤ 0.501	≥ 100
CCOC(=O)OCC1CCc2c(sc(NC(=O)CCc3ccccc3OCC)c2C#N)C1 (stereo not shown) [Example 151, Carbonic acid 3-cyano-2-[3-(2-ethoxy-phenyl)-propanoylamino]-4,5,6,7-tetrahydro-benzo[b]thiophen-6-ylmethyl ester ethyl ester]	≤ 0.501	≥ 100
COc1cccc(C(C)CC(=O)Nc2sc3c(c2C#N)CCC(COC(=O)NCc2c[nH]nc2C)C3)c1 (stereo not shown) [Example 336, (3-Methyl-1H-pyrazol-4-ylmethyl)-carbamic acid 3-cyano-2-[3-(3-methoxy-phenyl)-butanoylamino]-4,5,6,7-tetrahydro-benzo[b] thiophen-6-ylmethyl ester]	0.501 to 2	≥ 10
COc1cccc(C(C)CC(=O)Nc2sc3c(c2C#N)CCC(COC(=O)NCc2cc(C)no2)C3)c1 (stereo not shown) [Example 364, (3-Methyl-isoxazol-5-ylmethyl)-carbamic acid 3-cyano-2-[3-(3-methoxy-phenyl)-butanoyl-amino]-4,5,6,7-tetrahydro-benzo[b]thiophen-6-ylmethyl ester]	≤ 0.501	≥ 100
CCNC(=O)OCC1CCc2c(sc(NC(=O)/C=C/c3cccnc3)c2C#N)C1 (stereo not shown) [Example 9, Ethyl-carbamic acid 3-cyano-2-((E)-3-pyridin-3-yl-allanoylamino)-4,5,6,7-tetrahydro-benzo[b]thiophen-6-ylmethyl ester]	0.501 to 2	≥ 100
CN(CC(O)CO)C(=O)OCC1CCc2c(sc(NC(=O)/C=C/c3cccnc3)c2C#N)C1 (stereo not shown) [Example 123, (2,3-Dihydroxy-propyl)-methyl-carbamic acid 3-cyano-2-((E)-3-pyridin-3-yl-allanoylamino)-4,5,6,7-tetrahydro-benzo[b]thiophen-6-ylmethyl ester]	0.501 to 2	≥ 100
